Source: PMC8292346, “Dysfunction of the key ferroptosis-surveilling systems hypersensitizes mice to tubular necrosis during acute kidney injury” (Nature Communications, 2021)

Assay: Inhibited co-autoxidation of egg phosphatidylcholine liposomes and STY-BODIPY (radical-trapping antioxidant activity)
Method: Inhibitors were then added (5 μl aliquots) at desired concentrations to the appropriate wells followed by vigorous mixing. […] Experiments were performed in triplicate using HPLC grade solvents and kinetic data is given as an average of three independent measurements. […]

Substance “2,2,7,8-pentamethyl-6-chromanol [PMC, reference compound]” has a ΔSTY-BODIPY (time 53820 s) of -0.366 µM, a ΔSTY-BODIPY (time 53880 s) of -0.3653 µM and a ΔSTY-BODIPY (time 53940 s) of -0.3652 µM. It also gave a ΔSTY-BODIPY (time 54000 s) of -0.3628 µM.
